# System: Qurt medaka
# Test: Detection of sexual differentiation-disrupting activity: eggs bred in test solution, genotypic sex by pigment, phenotypic sex by RT-PCR of female-specific Gene 5
# Format: in vivo, medaka (Oryzias latipes)
# Details: fries hatched from eggs treated with 1 ppb 17 β-estradiol
# Method: Pairs of mature Qurt medakas each consisting of one male and one female were bred in 3 L of green water (purified water containing chlorella from green algae) at 25° C. under conditions of a light period for 14 hours and a dark period for 10 hours. They were fed with TetraMin three to five times a day setting the amount of TetraMin such that it was consumed within three to five minutes,;and then spawned. Eggs resulted from five pairs were placed in a Petri dish immediately after spawning, separated each other using tweezers in tap water from which chlorine had been removed and washed. The water was replaced by a 1 -ppb 17 β-estradiol (E2) aqueous solution containing 0.1% dimethyl sulfoxide. The mixture was dispensed into wells of 96-well round bottom microplate (#3797, Corning) which had been extensively washed with ultrapure water such that each well contained one egg. After covering with a lid, the microplate was incubated in an incubator at 25° C. On the third day from the start of incubation, males and females were distinguished by examining the yellow pigment which is expressed in a male-specific manner as autofluorescence using a fluorescence microscope (Nikon) The incubation was further continued, and fries then hatched on the 7th to 9th day after spawning. Fries were collected on the 12th day after spawning (the 3rd to 5th day after hatching), then soaked in RNAlater (#7021, Ambion) and stored at −80° C. RNAs were extracted from the fries using StrataPrep Total RNA Miniprep Kit (#400711, Stratagene). The test samples were soaked in a lysis solution attached to the kit, and homogenized in 1.5 -mL tubes using a pellet mixer (Urin Seisakusho). Then, extraction was completed according to the manual attached to the kit. The extracted RNAs were subjected to TaKaRa One Step RNA PCR Kit (AMV) (Takara Shuzo). 1st PCRs were carried out using a pair of primers F1 (SEQ ID NO: 30) and R1 (SEQ ID NO: 31) which is used to amplify a region of 729 bp in Gene 5 (SEQ ID NO: 5), a gene expressed in a female-specific manner. […]
compound,measurement,value
C[C@]12CC[C@@H]3c4ccc(O)cc4CC[C@H]3[C@@H]1CC[C@@H]2O [17 β-estradiol],genotypic females for which expression of Gene 6 was not observed,two out of the five
same,genotypic males for which expression of Gene 5 was observed,two out of the five
same,sexual differentiation (genotypic vs phenotypic sex),the sexual differentiation was disrupted
